Measurements taken from patent US20250382298A1, “NITROGEN-CONTAINING COMPOUND AND USE THEREOF” (SUZHOU GENHOUSE BIO CO., LTD., priority 2022, published 2025).
Where two headings read alike, the source gives them in different places.

Columns and labels:
[1] = test system: OVCAR3 cells; assay: Detection of OVCAR3 cell proliferation activity by CTG method; format: cell-based; conditions: CellTiter-Glo, 7 days
Outline: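 OVCAR3 cells (2000/well) were exposed for 7 days to compound at 10 μM to 0.026 nM, 5-fold steps, in duplicate. Viability was read as CellTiter-Glo luminescence. A plate read on the day of compound addition served as the Max value for IC50 derivation.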

[2] = Pharmacokinetic test in mice; format: in vivo; conditions: BALB/c mice; for AUC / Cmax / half-life: mouse, plasma; for half-life: read-out: t½ (converted)
Procedure: In this example, the pharmacokinetic behavior of the compounds after intravenous injection (IV) and intragastric (PO) administration in BALB/c mice was tested.
On the day of administration, mice were weighed for actual body weight and the administration volume was calculated. Each compound was tested in two groups with 9 mice in each group; one group was subjected to administration by single intravenous injection, and the other group of mice was subjected to single intragastric administration. Whole blood samples were collected via the orbit at prescribed time points (0.25 h, 0.5 h, 1 h, 2 h, 4 h, 8 h, and 24 h after administration). After blood sample collection, the samples were immediately transferred to labeled commercial sample tubes containing K2-EDTA (0.85-1.15 mg), followed by centrifugation (3200×g, 4° C., 10 min) and plasma collection. The plasma was transferred to a pre-cooled centrifuge tube, frozen in dry ice, and then stored in an ultra-low temperature freezer at −60° C. or lower until the LC-MS/MS analysis.
Plasma concentrations were determined by the LC-MS/MS method. Plasma drug concentration data for the compounds were processed using a non-compartmental model in the WinNonlin Version 6.3 (Pharsight, Mountain View, CA) pharmacokinetic software. The relevant pharmacokinetic parameters were calculated by a linear-log trapezoidal method.

[3] = target: cytochrome oxidase P450 1A2 (Homo sapiens (Human), UniProt P05177); assay: Inhibition of cytochrome oxidase P450 1A2; format: in vitro ADME; conditions: liver microsomes, CYP1A2
[4] = target: cytochrome oxidase P450 2C9 (Homo sapiens (Human), UniProt P11712); assay: Inhibition of cytochrome oxidase P450 2C9; format: in vitro ADME; conditions: liver microsomes, CYP2C9
Procedure: 100 mM K-Buffer: 9.5 mL of stock solution A was mixed with 40.5 mL of stock solution B, the total volume was adjusted to 500 mL with ultrapure water, and the buffer was titrated to pH 7.4 with KOH or H3PO4. The test compound powder was prepared into a stock solution at a certain concentration with DMSO or another organic solvent, which was then further diluted with a proper organic solvent. The liver microsomal in vitro incubation system for the CYP450 enzyme metabolism phenotype study was a biochemical reaction of prepared liver microsomes supplemented with a redox coenzyme and an enzyme-specific selective inhibitor under simulated physiological temperature and environment conditions. The concentration of the parent drug or a metabolite thereof in the incubation solution was determined by LC-MS/MS.

[5] = test system: Human colon cancer HT-29 cells; assay: Pharmacodynamic experiment in mice, subcutaneous HT-29 tumor; format: in vivo; conditions: 20 mpk BID intragastric, after 16 days of administration, HT-29 subcutaneous tumor in mice
Procedure: Human colon cancer HT-29 cells were cultured in monolayer in vitro under the following conditions: DMEM medium containing 10% fetal bovine serum and 1% penicillin and streptomycin, at 37° C. with 5% CO2. The cells were digested with trypsin three times a week for passaging. When the saturation degree of the cells was 80%-90%, the cells were collected, counted, and inoculated, 0.1 mL (1×10^6 cells) of HT-29 cells were subcutaneously inoculated on the tight back of each mouse. On day 11 after inoculation of the cells, the mean tumor volume reached 325 mm^3. The mice were randomly grouped for administration (the animals were divided into an administration group and a control group, with 6 animals in each group). The day of grouping was defined as d0, and intragastric administration was started on d1. The administration was performed twice daily at an administration volume of 10 mL/kg. Vehicle control was adminstered to the control group. The tumor volume was measured 2-3 times per week, and meanwhile, the mice were weighed and the data were recorded; daily observations were made to record the body surface signs of the mice. After the experiment was completed, the tumors were removed, weighed, and photographed for recording.
Calculation formula for tumor volume: […]

cytochrome oxidase P450 2C9, sequence (P11712 whole entry): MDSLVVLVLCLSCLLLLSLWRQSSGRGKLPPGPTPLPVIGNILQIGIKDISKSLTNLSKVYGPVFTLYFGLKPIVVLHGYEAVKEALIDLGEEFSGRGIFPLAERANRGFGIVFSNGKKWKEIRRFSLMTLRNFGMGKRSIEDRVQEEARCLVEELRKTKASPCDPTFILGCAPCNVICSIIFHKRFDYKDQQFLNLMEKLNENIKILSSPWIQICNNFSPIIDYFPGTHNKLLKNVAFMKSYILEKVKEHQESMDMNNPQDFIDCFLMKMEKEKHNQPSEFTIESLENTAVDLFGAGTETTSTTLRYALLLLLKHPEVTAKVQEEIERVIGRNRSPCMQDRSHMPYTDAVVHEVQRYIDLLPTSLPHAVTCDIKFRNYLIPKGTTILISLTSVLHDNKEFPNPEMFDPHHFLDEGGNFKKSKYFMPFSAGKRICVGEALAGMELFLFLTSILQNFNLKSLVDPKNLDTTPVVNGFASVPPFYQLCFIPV
cytochrome oxidase P450 1A2, sequence (P05177 whole entry): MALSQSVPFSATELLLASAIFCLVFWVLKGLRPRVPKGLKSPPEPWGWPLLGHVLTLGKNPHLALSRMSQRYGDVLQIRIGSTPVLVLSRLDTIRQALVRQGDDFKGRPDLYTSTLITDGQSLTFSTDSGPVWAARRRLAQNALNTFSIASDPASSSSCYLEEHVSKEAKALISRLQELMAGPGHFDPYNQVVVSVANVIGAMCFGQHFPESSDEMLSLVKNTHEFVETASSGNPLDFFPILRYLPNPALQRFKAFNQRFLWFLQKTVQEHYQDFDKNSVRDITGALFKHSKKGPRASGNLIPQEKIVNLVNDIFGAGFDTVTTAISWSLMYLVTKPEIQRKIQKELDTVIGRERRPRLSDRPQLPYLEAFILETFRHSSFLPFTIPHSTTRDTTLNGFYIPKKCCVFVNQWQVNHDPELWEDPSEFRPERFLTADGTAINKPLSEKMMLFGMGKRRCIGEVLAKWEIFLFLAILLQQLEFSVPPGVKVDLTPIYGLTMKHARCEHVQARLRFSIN

Structure (SMILES)	IC50 ([1]; Homo sapiens, OVCAR-3, 168 h)	F ([2]; PO @5mpk)	AUC ([2]; 5 mg/kg, PO @5mpk)	Cmax ([2]; 5 mg/kg, PO @5mpk)	half-life ([2]; 5 mg/kg, PO @5mpk)	IC50 [3]	IC50 [4]	F ([2]; PO @30mpk)	AUC ([2]; 30 mg/kg, PO @30mpk)	Cmax ([2]; 30 mg/kg, PO @30mpk)	half-life ([2]; 30 mg/kg, PO @30mpk)	TGI [5]	IC50 [1]
Cc1cc(NC(=O)c2ccc(NS(=O)(=O)CCO)cc2N2CC3CCC(C3)C2)nc(N2CCC(F)(F)CC2)n1 [Compound 3]	85 nM	87%	74.8 µM·h	4.25 µM	44.5 h								
O=C(Nc1cc2ccccc2c(N2CCC(F)(F)CC2)n1)c1ccc(NS(=O)(=O)CCO)cc1N1CCC2(CC1)CC2 [Compound 6]	118 nM	44%	13.5 µM·h	1.55 µM	4.7 h	> 10000 nM	5280 nM						
CS(=O)(=O)Nc1ccc(C(=O)Nc2cn3ccnc3c(N3CCC(F)(F)CC3)n2)c(N2CCC3(CC2)CC3)c1 [Compound 10]	16 nM												
O=C(Nc1cn2ccnc2c(N2CCC(F)(F)CC2)n1)c1ccc(NS(=O)(=O)CCO)cc1N1CC2CCC(C2)C1 [Compound 17]	6.3 nM	116%	13.3 µM·h	2.69 µM	3.3 h								
CS(=O)(=O)Nc1ccc(C(=O)Nc2cn3ccnc3c(N3CCC(F)(F)CC3)n2)c(N2CC3CCC(C3)C2)c1 [Compound 19]		101%	58.3 µM·h	3.92 µM	14.9 h	> 10000 nM	9380 nM	92%	320 µM·h	15.3 µM	16.5 h	111.82%	
O=C(Nc1cn2cnnc2c(N2CCC(F)(F)CC2)n1)c1ccc(NS(=O)(=O)CCO)cc1N1CCC2(CC1)CC2 [Compound 24]													17.8 nM
CS(=O)(=O)Nc1ccc(C(=O)Nc2cc3cc[nH]c3c(N3CCC(F)(F)CC3)n2)c(N2CCC3(CC2)CC3)c1 [Compound 47]						> 10000 nM	180 nM					108.84%	

Continued, in another order:

IC50 ([1]; Homo sapiens, OVCAR-3, 168 h)	F ([2]; PO @5mpk)	AUC ([2]; 5 mg/kg, PO @5mpk)	Cmax ([2]; 5 mg/kg, PO @5mpk)	half-life ([2]; 5 mg/kg, PO @5mpk)	IC50 [3]	IC50 [4]	F ([2]; PO @30mpk)	AUC ([2]; 30 mg/kg, PO @30mpk)	Cmax ([2]; 30 mg/kg, PO @30mpk)	half-life ([2]; 30 mg/kg, PO @30mpk)	Structure (SMILES)	TGI [5]	IC50 [1]
5.8 nM	97%	6.87 µM·h	1.61 µM	1.2 h	> 10000 nM	2660 nM					O=C(Nc1cn2ccnc2c(N2CCC(F)(F)CC2)n1)c1ccc(NS(=O)(=O)CCO)cc1N1CCC2(CC1)CC2 [Compound 8]		
5.6 nM											O=C(Nc1cc2c(c(N3CCC(F)(F)CC3)n1)COC2)c1ccc(NS(=O)(=O)CCO)cc1N1CCC2(CC1)CC2 [Compound 14]		
24 nM	79%	17.8 µM·h	1.77 µM	3.4 h							O=C(Nc1cc2ccsc2c(N2CCC(F)(F)CC2)n1)c1ccc(NS(=O)(=O)CCO)cc1N1CCC2(CC1)CC2 [Compound 15]		
	107%	60.9 µM·h	4.17 µM	4 h	> 10000 nM	> 10000 nM	61%	207 µM·h	15.3 µM	5.4 h	O=C(Nc1cc2cccnc2c(N2CCC(F)(F)CC2)n1)c1ccc(NS(=O)(=O)CCO)cc1N1CCC2(CC1)CC2 [Compound 21]		
11.2 nM							218%	79.8 µM·h	14.6 µM	10 h	O=C(Nc1cc2cc[nH]c2c(N2CCC(F)(F)CC2)n1)c1ccc(NS(=O)(=O)CCO)cc1N1CCC2(CC1)CC2 [Compound 22]		
6.4 nM											O=C(Nc1cn2ncnc2c(N2CCC(F)(F)CC2)n1)c1ccc(NS(=O)(=O)CCO)cc1N1CCC2(CC1)CC2 [Compound 23]		
	257%	70.1 µM·h	6.39 µM	3.7 h	> 10000 nM	4460 nM	147%	220 µM·h	15.2 µM	9.6 h	O=C(Nc1cn2c(F)cnc2c(N2CCC(F)(F)CC2)n1)c1ccc(NS(=O)(=O)CCO)cc1N1CCC2(CC1)CC2 [Compound 34]	105.10%	
